{"source": "patent US20200255844A1", "about": "“MULTIPLEXED RECEPTOR-LIGAND INTERACTION SCREENS” (THE REGENTS OF THE UNIVERSITY OF CALIFORNIA, priority 2017, published 2020)", "key": {"MOR 199-1": {"system": "MOR 199-1", "test": "High-throughput multiplexed odorant screening (Smell-seq), barcode RNA-seq readout", "format": "cell-based, mouse", "details": "OR MOR 199-1; pair called as hit, FDR=1%", "excerpt": "(§1) We subsequently screened 182 odorants at three concentrations in triplicate against the OR cell library, the equivalent of ˜85,000 individual luciferase assays including controls (FIG. 10A, Table 2). Each 96-well plate in the assay contained positive control odorants and solvent DMSO wells for normalization (FIG. 16). We used the EdgeR software package to determine differentially responsive ORs based on a negative binomial model of barcode counts. We found 114 OR-odorant interactions (out of 7,200 possible), 81 of which are novel, and 24 interactions with 15 orphan receptors (FIG. 10C, FIG. 17 and Supplementary Table 4) (FDR=1%; Benjamini-Hochberg correction). Overall 28 of 39 receptors were activated by at least one odorant, and 68 of 182 odorants activated at least one OR (Table 4). We chose 37 interactions of at least 1.2 fold induction to test individually with a previously developed transient OR assay that has several important differences (FIG. 18). Of the 28 interactions called as hits at an FDR of 1%, 21 of them replicated in this orthogonal system (FIG. 17). […] Conversely, we also detect 14 interactions that this previous study tested, but called negative."}, "Olfr62": {"system": "Olfr62", "test": "High-throughput multiplexed odorant screening (Smell-seq), barcode RNA-seq readout", "format": "cell-based, mouse", "details": "OR Olfr62; pair called as hit, FDR=1%", "excerpt": "as §1"}, "MOR170-1": {"system": "MOR170-1", "test": "High-throughput multiplexed odorant screening (Smell-seq), 96-well, barcode RNA-seq readout", "format": "cell-based, mouse", "details": "OR MOR170-1; pair called as hit, FDR=1%", "protocol": "10. High-Throughput Odorant Screening\nThe OR library cell line was thawed from a liquid nitrogen frozen stock into a T-225 flask (Corning) three days before seeding into a 96-well plate for screening. The library was seeded at 6,666 cells per well in 100 ul of DMEM. 24 hours later a working concentration of 1 ug/ml of doxycycline in DMEM was added to the wells. 24 hours after induction, the media was removed from each plate and replaced with 25 ul of odorant diluted in OptiMEM. Each odor was added at three different concentrations (10 uM, 100 uM, 1 mM) in triplicate with the same amount of final DMSO (1%). Each plate contained two control odorants at a three concentration (10 uM, 100 uM, 1 mM) in triplicate and three wells containing 1% DMSO dissolved in media. The library was incubated with odorants for three hours in a cell culture incubator with the lids removed.\nAfter odor incubation, media was pipetted out of the plates and cells were lysed by adding 25 uL of ice-cold Cells-to-cDNA II Lysis Buffer (Thermo Fisher) and pipetting up and down to homogenize and lyse cells. The lysate was then heated to 75° C. for 15 minutes and flash frozen with liquid nitrogen and kept at −80 C until further processing. Then 0.5 uL DNase I (New England Biolabs) was added to lysate, and incubated at 37° C. for 15 minutes. To anneal the RT primer, 5 ul of lysate from each well was combined with 2.5 ul of 10 mM dNTPs (New England Biosciences), 1 ul of 2 uM gene specific RT primer (OL003), and 1.5 ul of H2O. The reaction was heated to 65° C. for 5 min and cooled back down to 0° C. After annealing, 1 ul of M-MuLV Reverse Transcriptase (Enzymatics), 1 ul of buffer, and 0.25 ul of RNase Inhibitor (Enzymatics) were added to each reaction. Reactions were incubated at 42° C. for 60 min and the RT enzyme was heat inactivated at 85° C. for 10 min.\nFor each batch, qPCR was performed on a few wells (OL005F and OL013) with SYBR FAST qPCR Mastermix to determine the number of cycles necessary for PCR based library preparation. The reaction and cycling conditions are optimized as follows: 95° C. for 3 minutes, 40 cycles of 95° C. for 3 seconds and 60° C. for 20 seconds. After qPCR, 5 ul of each RT reaction was combined with 0.4 ul of 10 uM primers containing sequencing adaptors (OL005F and OL013), 10 ul of NEB-Next Q5 Mastermix (New England Biosciences) and 4.2 ul H2O, the PCR was carried out according to the manufacturer's protocol. The forward primer contains the P7 adaptor sequence and an index identifying the well in the assay and the reverse primer contains the P5 adaptor sequence and an index identifying the plate in the assay. PCR products were pooled together by plate and purified with the DNA Clean and Concentrator Kit. Library concentrations were quantified using a Tape Station 2200 and a Qubit (Thermo Fisher). The libraries were sequenced with two index reads and a single end 75-bp read on a NextSeq 500 in high-output mode (Illumina).\n11. Analysis of Next-Generation Sequencing Data\nSamples were identified via indexing by their PCR indexes adapters unique for each well (5′ end) and unique for each plate (3′ end). The well barcodes followed the 7 bp indexing scheme in (Illumina Sequencing Library Preparation for Highly Multiplexed Target Capture and Sequencing Matthias Meyer, Martin Kircher, Cold Spring Harb Protoc; 2010; doi:10.1101/pdb.prot5448). The plate indexing scheme followed the Illumina indexing scheme. Sequencing data was demultiplexed and 15 bp barcode sequences were counted with only exact matches by custom python and bash scripts.\n12. Statistical Methods for Calling Hits\nCount data was then analyzed using the differential expression package EdgeR. To filter out ORs with low representation, we set a cutoff that an OR had to contain at least 0.5% of the reads from more than 399 of the 1954 test samples. This filtered out 3 of 42 ORs which were underrepresented in the cell library (MOR172-1, MOR176-1 and MOR181-1). […]"}, "MOR208-1": {"system": "MOR208-1", "test": "High-throughput multiplexed odorant screening (Smell-seq), barcode RNA-seq readout", "format": "cell-based, mouse", "details": "OR MOR208-1; pair called as hit, FDR=1%", "excerpt": "as §1"}, "MOR30-1": {"system": "MOR30-1", "test": "High-throughput multiplexed odorant screening (Smell-seq), barcode RNA-seq readout", "format": "cell-based, mouse", "details": "OR MOR30-1; pair called as hit, FDR=1%", "excerpt": "as §1"}, "MOR120-1": {"system": "MOR120-1", "test": "High-throughput multiplexed odorant screening (Smell-seq), barcode RNA-seq readout", "format": "cell-based, mouse", "details": "OR MOR120-1; pair called as hit, FDR=1%", "excerpt": "as §1"}, "MOR189-1": {"system": "MOR189-1", "test": "High-throughput multiplexed odorant screening (Smell-seq), barcode RNA-seq readout", "format": "cell-based, mouse", "details": "OR MOR189-1; pair called as hit, FDR=1%", "excerpt": "as §1"}, "MOR102-1": {"system": "MOR102-1", "test": "High-throughput multiplexed odorant screening (Smell-seq), barcode RNA-seq readout", "format": "cell-based, mouse", "details": "OR MOR102-1; pair called as hit, FDR=1%", "excerpt": "as §1"}, "MOR142-1": {"system": "MOR142-1", "test": "High-throughput multiplexed odorant screening (Smell-seq), barcode RNA-seq readout", "format": "cell-based, mouse", "details": "OR MOR142-1; pair called as hit, FDR=1%", "excerpt": "as §1"}, "MOR132-1": {"biological_target": "T1, MOR132-1 (Mus musculus, UniProt Q8VFM9)", "T1 construct": "protein trafficking tags (N); expressed in transfected cells; host or cells: HEK293T-derived cells (Mukku3a), PiggyBac transposon, Tet-On inducible", "T1 sequence (Q8VFM9 whole entry)": "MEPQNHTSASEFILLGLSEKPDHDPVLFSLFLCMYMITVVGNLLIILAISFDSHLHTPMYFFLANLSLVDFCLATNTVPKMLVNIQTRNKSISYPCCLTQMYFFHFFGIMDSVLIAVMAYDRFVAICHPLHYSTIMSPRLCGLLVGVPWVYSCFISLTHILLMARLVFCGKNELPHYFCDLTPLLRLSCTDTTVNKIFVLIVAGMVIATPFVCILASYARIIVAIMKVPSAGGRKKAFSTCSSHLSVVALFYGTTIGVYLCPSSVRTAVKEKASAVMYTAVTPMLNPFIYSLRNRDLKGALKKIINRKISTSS", "test": "High-throughput multiplexed odorant screening (Smell-seq), barcode RNA-seq readout", "format": "cell-based", "details": "OR MOR132-1; pair called as hit, FDR=1%", "excerpt": "as §1"}, "MOR180-1": {"biological_target": "T2, MOR180-1 (Mus musculus, UniProt Q8VGS3)", "T2 construct": "protein trafficking tags (N); expressed in transfected cells; host or cells: HEK293T-derived cells (Mukku3a), PiggyBac transposon, Tet-On inducible", "T2 sequence (Q8VGS3 whole entry)": "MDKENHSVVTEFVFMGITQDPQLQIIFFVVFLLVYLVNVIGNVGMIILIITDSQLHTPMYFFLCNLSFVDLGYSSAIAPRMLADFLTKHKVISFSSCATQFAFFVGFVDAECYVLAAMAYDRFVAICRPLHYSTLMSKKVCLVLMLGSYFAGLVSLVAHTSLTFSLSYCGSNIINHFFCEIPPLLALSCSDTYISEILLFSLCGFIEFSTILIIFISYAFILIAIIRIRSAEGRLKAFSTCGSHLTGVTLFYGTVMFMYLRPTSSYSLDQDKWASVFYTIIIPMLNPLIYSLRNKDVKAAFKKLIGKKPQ", "test": "High-throughput multiplexed odorant screening (Smell-seq), barcode RNA-seq readout", "format": "cell-based", "details": "OR MOR180-1; pair called as hit, FDR=1%", "excerpt": "as §1"}}}
{"compound": "CCc1occc(=O)c1O", "note": "[ethyl maltol]", "values": [{"measurement": "Minimum Activating Concentration", "setting": "MOR 199-1", "value": 100, "unit": "µM"}, {"measurement": "Minimum Activating Concentration", "setting": "Olfr62", "value": 1000, "unit": "µM"}, {"measurement": "Minimum Activating Concentration", "setting": "MOR170-1", "value": 1000, "unit": "µM"}]}
{"compound": "CC(=O)O[C@]1(C)CC[C@@]23C[C@@H]1C(C)(C)[C@@H]2CC[C@H]3C", "note": "[Cedryl acetate]", "values": [{"measurement": "Minimum Activating Concentration", "setting": "MOR208-1", "value": 1000, "unit": "µM"}, {"measurement": "Minimum Activating Concentration", "setting": "MOR30-1", "value": 1000, "unit": "µM"}, {"measurement": "Minimum Activating Concentration", "setting": "MOR120-1", "value": 1000, "unit": "µM"}, {"measurement": "Minimum Activating Concentration", "setting": "MOR189-1", "value": 1000, "unit": "µM"}, {"measurement": "Minimum Activating Concentration", "setting": "MOR102-1", "value": 1000, "unit": "µM"}, {"measurement": "Minimum Activating Concentration", "setting": "MOR142-1", "value": 1000, "unit": "µM"}, {"measurement": "Minimum Activating Concentration", "setting": "MOR132-1", "value": 1000, "unit": "µM"}]}
{"compound": "CCCCC/C(=C\\c1ccccc1)C(OC)OC", "note": "[a-Amylcinnamaldehyde dimethyl acetal]", "values": [{"measurement": "Minimum Activating Concentration", "setting": "MOR180-1", "value": 1000, "unit": "µM"}]}
